Tests used:
Type in all cases: binding
MC4R = target: T1, MC4R (Homo sapiens, UniProt P32245); experiment: NanoBRET screen HiBiT-MC4R in HEK293; details: MC4R
T1 construct: purchased Promega (in-house HiBiT-GPCR construct library, NanoBRET)
Protocol: (§1) Each tracer candidate was screened across the entire library of HiBiT-GPCR constructs using NanoBRET as the detection modality. As depicted in Figure 4A, the specificity of interactions was evaluated through decrease in BRET due to competitive displacement of a bound tracer by excess parental compound. Each tracer was analyzed for binding to each HiBiT-GPCR fusion in the absence and in the presence of competing parental compound. Briefly, HEK293 cells were transfected with HiBiT-GPCR constructs diluted into promoterless DNA to reduce expression and maximize translocation to the cell surface. Each tracer candidate was then screened at concentrations of 1 μM and 0.1 μM across cells expressing these fusions. Cells were treated for 1.5 h with tracer either alone or in the presence of 20 μM competing parental compound (i.e., control). BRET was measured upon addition of purified LgBiT and subsequent complementation with HiBiT genetically fused to a GPCR. The specificity of interactions was assessed through a decrease in BRET signal due to competitive displacement of the bound tracer. To further gauge the robustness of these interactions, the fold response over the control (i.e., BRETtracer/BRETcontrol) was calculated. We chose a 1.5-fold response, which translates to ≥7-fold signal over noise as the minimal threshold required to score an interaction as positive. […]. Below we highlight the screening results obtained for our exemplary fluorescent tracers based on Clozapine, Amitriptyline and AZD1283.
(§2) HiBiT-GPCR DNA constructs were diluted in 10 mM Tris pH 8 to a final concentration of 0.01 μg/μL, arrayed in 96-well plates and stored at −20 °C. For transfection, HEK293 cells were suspended in Opti-MEM (without phenol red) supplemented with 2% fetal bovine serum (Seradigm) and 100 units/mL penicillin–streptomycin (Gibco) at a final concentration of 220,000 cells/mL and dispensed into white 96-well plates at 90 μL/well. Subsequent transfections and screens were carried using an Agilent Bravo Automated Liquid Handling Platform. First, the 96-well HiBiT DNA arrays were diluted 25-fold in Opti-MEM (without serum or phenol red) to a final concentration of 0.0004 μg/μL and 20 μL of the diluted DNAs were transferred into new 96-well plates. Next, promoterless carrier DNA (1 μg/μL) was diluted 25-fold (0.04 μg/μL) and then dispensed into the diluted arrays at 20 μL/well. Following brief mixing, Viafect transfection reagent (Promega) diluted 16-fold into Opti-MEM was dispensed into the plates at 40 μL/well. After mixing by pipetting, plates were incubated for 10 min on the pipetting station deck. The DNA-transfection reagent complexes were then added to plates containing cells. To facilitate the screen, 10 μL of DNA-transfection reagent complexes were added in duplicates to the top 4 and bottom 4 rows, resulting in two identical 48-well arrays per plate. Plates with transfected cells were incubated for 18–20 h at 37 °C/5% CO2. A screen of each tracer across the entire library using two different concentrations requires duplicate plates of transfected cells. Depending on the number of tracers being screened, transfections can be scaled up using the same ratios. The next day, for each tracer, four 20× screening solutions in tracer dilution buffer (Promega) were prepared: two duplicates at final concentration of 20 μM and two duplicates at a final concentration of 2 μM. A competing unmodified compound was added to one of each duplicate at a final concentration of 400 μM. The four resulting solutions were diluted 4-fold in Opti-MEM without serum or phenol red to generate 5× solutions (5 µM and 0.5 µM tracer +/− 100 μM competing compound). To screen the library, a BioTek MultiFlo FX liquid dispenser was used to dispense 22.5 µL of tracer solution to the top 4 rows and 22.5 µL tracer + competing compound solution to the 4 bottom rows. Plates were briefly mixed on an orbital shaker and incubated for 1.5 h at room temperature. […]

FZD8 = target: T2, FZD8 (Homo sapiens, UniProt Q9H461); experiment: NanoBRET screen HiBiT-FZD8 in HEK293; details: FZD8
T2 construct: purchased Promega (in-house HiBiT-GPCR construct library, NanoBRET)
T2 sequence (Q9H461 28-694): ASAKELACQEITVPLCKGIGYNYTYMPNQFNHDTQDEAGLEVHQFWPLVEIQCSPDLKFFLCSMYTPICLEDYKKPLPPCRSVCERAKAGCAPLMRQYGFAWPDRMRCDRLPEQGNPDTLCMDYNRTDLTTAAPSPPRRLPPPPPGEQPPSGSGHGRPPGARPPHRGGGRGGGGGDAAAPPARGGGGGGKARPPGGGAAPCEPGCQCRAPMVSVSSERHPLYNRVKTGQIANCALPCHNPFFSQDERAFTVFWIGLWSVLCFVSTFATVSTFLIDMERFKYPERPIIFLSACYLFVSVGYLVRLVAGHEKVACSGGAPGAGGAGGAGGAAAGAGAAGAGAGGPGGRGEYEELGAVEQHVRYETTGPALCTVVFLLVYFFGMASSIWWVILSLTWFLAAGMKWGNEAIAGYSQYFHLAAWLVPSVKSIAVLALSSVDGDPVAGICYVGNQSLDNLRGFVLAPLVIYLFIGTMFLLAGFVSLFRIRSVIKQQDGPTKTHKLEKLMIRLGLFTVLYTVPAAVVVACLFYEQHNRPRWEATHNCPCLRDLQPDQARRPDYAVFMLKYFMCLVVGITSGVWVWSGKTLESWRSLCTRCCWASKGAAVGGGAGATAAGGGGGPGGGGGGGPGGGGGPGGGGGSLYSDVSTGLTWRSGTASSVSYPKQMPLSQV
Protocol: as §1, §2

SSTR3 = target: T3, SSTR3 (Homo sapiens, UniProt P32745); experiment: NanoBRET screen HiBiT-SSTR3 in HEK293; details: SSTR3
T3 construct: purchased Promega (in-house HiBiT-GPCR construct library, NanoBRET)
T3 sequence (P32745 whole entry): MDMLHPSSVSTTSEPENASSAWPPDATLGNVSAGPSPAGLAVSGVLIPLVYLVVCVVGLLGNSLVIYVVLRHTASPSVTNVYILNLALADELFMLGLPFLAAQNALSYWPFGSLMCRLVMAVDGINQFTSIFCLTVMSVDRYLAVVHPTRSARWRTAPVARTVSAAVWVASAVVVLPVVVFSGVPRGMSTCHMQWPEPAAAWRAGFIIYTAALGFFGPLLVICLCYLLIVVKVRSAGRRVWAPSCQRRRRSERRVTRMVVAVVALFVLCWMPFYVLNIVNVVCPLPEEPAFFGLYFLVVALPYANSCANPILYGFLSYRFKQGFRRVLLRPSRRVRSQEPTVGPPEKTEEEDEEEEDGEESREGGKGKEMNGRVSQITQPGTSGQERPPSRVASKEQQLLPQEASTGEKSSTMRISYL
Protocol: as §1, §2

CCR9 = target: T4, CCR9 (Homo sapiens, UniProt P51686); experiment: NanoBRET screen HiBiT-CCR9 in HEK293; details: CCR9
T4 construct: purchased Promega (in-house HiBiT-GPCR construct library, NanoBRET)
T4 sequence (P51686 1-369): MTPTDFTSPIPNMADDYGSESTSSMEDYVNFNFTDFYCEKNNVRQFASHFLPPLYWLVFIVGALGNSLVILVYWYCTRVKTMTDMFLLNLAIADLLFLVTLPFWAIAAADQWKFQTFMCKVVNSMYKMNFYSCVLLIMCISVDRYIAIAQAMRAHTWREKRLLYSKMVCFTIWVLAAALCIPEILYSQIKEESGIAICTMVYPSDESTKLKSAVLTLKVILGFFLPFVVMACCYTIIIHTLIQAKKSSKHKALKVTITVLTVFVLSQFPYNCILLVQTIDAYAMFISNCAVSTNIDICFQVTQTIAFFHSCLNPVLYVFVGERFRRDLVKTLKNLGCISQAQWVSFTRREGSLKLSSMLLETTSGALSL
Protocol: as §1, §2

T1 sequence (P32245 whole entry): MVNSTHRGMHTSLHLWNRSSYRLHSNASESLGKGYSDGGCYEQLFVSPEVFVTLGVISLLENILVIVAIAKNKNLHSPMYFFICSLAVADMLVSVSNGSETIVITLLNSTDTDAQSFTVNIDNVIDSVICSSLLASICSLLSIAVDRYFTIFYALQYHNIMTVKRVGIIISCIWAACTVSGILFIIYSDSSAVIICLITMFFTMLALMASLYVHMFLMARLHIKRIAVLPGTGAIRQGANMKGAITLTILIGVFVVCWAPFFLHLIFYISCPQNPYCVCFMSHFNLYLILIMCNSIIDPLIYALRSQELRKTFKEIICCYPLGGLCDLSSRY

Compound: O=C(CCOCCOCCOCCOCCNC(=O)CCc1ccc2n1[B-](F)(F)[N+]1=C(c3ccc[nH]3)C=CC1=C2)NCCCN1CCN(C2=Nc3ccccc3Oc3ccc(Cl)cc32)CC1 [Loxapine-a-2-NB590]
- NanoBRET Fold Response (MC4R; tracer 0.1μM): 1.04
- NanoBRET Fold Response (MC4R; tracer 1μM): 1.04
- NanoBRET Fold Response (FZD8; tracer 0.1μM): 0.95
- NanoBRET Fold Response (FZD8; tracer 1μM): 1.01
- NanoBRET Fold Response (SSTR3; tracer 0.1μM): 1.01
- NanoBRET Fold Response (SSTR3; tracer 1μM): 1.25
- NanoBRET Fold Response (CCR9; tracer 0.1μM): 1.02
- NanoBRET Fold Response (CCR9; tracer 1μM): 0.91

Compound: COc1ccccc1N1CCN(CCCCN2C(=O)c3ccc(CNC(=O)CCOCCOCCOCCOCCNC(=O)CCc4ccc5n4[B-](F)(F)[N+]4=C(c6ccc[nH]6)C=CC4=C5)cc3C2=O)CC1 [NAN-190-2-NB590]
- NanoBRET Fold Response (MC4R; tracer 0.1μM): 0.97
- NanoBRET Fold Response (MC4R; tracer 1μM): 1.01
- NanoBRET Fold Response (FZD8; tracer 0.1μM): 0.95
- NanoBRET Fold Response (FZD8; tracer 1μM): 1.03
- NanoBRET Fold Response (SSTR3; tracer 0.1μM): 1.00
- NanoBRET Fold Response (SSTR3; tracer 1μM): 1.05
- NanoBRET Fold Response (CCR9; tracer 0.1μM): 0.98
- NanoBRET Fold Response (CCR9; tracer 1μM): 0.99

Compound: CC(C)N(CC[C@H](c1ccccc1)c1cc(CCNC(=O)c2ccc(CNC(=O)CCc3ccc4n3[B-](F)(F)[N+]3=C(c5ccc[nH]5)C=CC3=C4)cc2)ccc1O)C(C)C [Tolterodine-BZ-NB590]
- NanoBRET Fold Response (MC4R; tracer 0.1μM): 1.00
- NanoBRET Fold Response (MC4R; tracer 1μM): 1.01
- NanoBRET Fold Response (FZD8; tracer 0.1μM): 1.00
- NanoBRET Fold Response (FZD8; tracer 1μM): 1.02
- NanoBRET Fold Response (SSTR3; tracer 0.1μM): 1.01
- NanoBRET Fold Response (SSTR3; tracer 1μM): 1.04
- NanoBRET Fold Response (CCR9; tracer 0.1μM): 0.74
- NanoBRET Fold Response (CCR9; tracer 1μM): 1.14

Compound: O=C(CCc1ccc2n1[B-](F)(F)[N+]1=C(c3ccc[nH]3)C=CC1=C2)NCCOCCOCCNC(=O)OCCOCCN1CCN(C2=Nc3ccccc3Sc3ccccc32)CC1 [Quetiapine-a-2-NB590]
- NanoBRET Fold Response (MC4R; tracer 0.1μM): 0.97
- NanoBRET Fold Response (MC4R; tracer 1μM): 1.06
- NanoBRET Fold Response (FZD8; tracer 0.1μM): 1.02
- NanoBRET Fold Response (FZD8; tracer 1μM): 1.08
- NanoBRET Fold Response (SSTR3; tracer 0.1μM): 0.96
- NanoBRET Fold Response (SSTR3; tracer 1μM): 0.74
- NanoBRET Fold Response (CCR9; tracer 0.1μM): 1.05
- NanoBRET Fold Response (CCR9; tracer 1μM): 0.96

Compound: CN1CCN(C2=Nc3cc(Cl)ccc3Nc3ccc(CNC(=O)CCOCCOCCOCCOCCNC(=O)CCc4ccc5n4[B-](F)(F)[N+]4=C(c6ccc[nH]6)C=CC4=C5)cc32)CC1 [Clozapine-b-2-NB590]
- NanoBRET Fold Response (MC4R; 0.1μM tracer): 1.03
- NanoBRET Fold Response (MC4R; 1μM tracer): 1.05
- NanoBRET Fold Response (FZD8; 0.1μM tracer): 1.00
- NanoBRET Fold Response (FZD8; 1μM tracer): 1.02
- NanoBRET Fold Response (SSTR3; 0.1μM tracer): 0.99
- NanoBRET Fold Response (SSTR3; 1μM tracer): 1.02
- NanoBRET Fold Response (CCR9; 0.1μM tracer): 1.01
- NanoBRET Fold Response (CCR9; 1μM tracer): 0.92

Compound: CC(C)N(CC[C@H](c1ccccc1)c1cc(CCNC(=O)CCOCCOCCOCCOCCNC(=O)CCc2ccc3n2[B-](F)(F)[N+]2=C(c4ccc[nH]4)C=CC2=C3)ccc1O)C(C)C [Tolterodine-2-NB590]
- NanoBRET Fold Response (MC4R; tracer 0.1μM): 1.07
- NanoBRET Fold Response (MC4R; tracer 1μM): 1.00
- NanoBRET Fold Response (FZD8; tracer 0.1μM): 1.07
- NanoBRET Fold Response (FZD8; tracer 1μM): 1.12
- NanoBRET Fold Response (SSTR3; tracer 0.1μM): 1.08
- NanoBRET Fold Response (SSTR3; tracer 1μM): 1.17
- NanoBRET Fold Response (CCR9; tracer 0.1μM): 1.12
- NanoBRET Fold Response (CCR9; tracer 1μM): 0.95
